Patent publication US20230373985A1 (Origenis Gmbh, priority 2020, published 2023)
pIC50: −log10 of the molar value.

Tests used:
[1] = biological target: T1, wt human JAK2, catalytic site (Homo sapiens, UniProt O60674); assay: HTRF KinEASE assay, JAK2; type: biochemical; settings: assay format not given (Z'-LYTE or HTRF KinEASE); read-out: IC50, Activity Toward JAK2
T1 construct: wt human JAK2, catalytic site; purchased SignalChem
Experimental: Basic protocol for HTRF KinEASE assay (Cisbio/FRA) inhibitor studies involved two steps: • Enzymatic step: Addition of 4 μL of test compound in corresponding DMSO dilutions, 4 μL of kinase/substrate mixture, 2 μL of ATP into 384 well small volume plates. Incubation for at least 30 minutes at room temperature. • Detection step: Addition of 5 μL antibody and 5 μL streptavidin-XL665, read plate after 60 minutes. Data analysis of emission ratios according KinEASE assay protocol.
(§1) Kinase and assay components were adjusted to final concentrations according to kit protocol. For TYK2: 2 nM wt human TYK2, catalytic site (SignalChem/CAN), 1 μM HTRF KinEASE-TK Substrate-biotin, 1 μM ATP in 1× Kinase Buffer. For JAK1: 4 nM wt human JAK1, catalytic site (ThermoFisher/USA), 1 μM HTRF KinEASE-TK Substrate-biotin, 2.5 μM ATP in 1× Kinase Buffer. For JAK2: 1 nM wt human JAK2, catalytic site (SignalChem/CAN), 1 μM HTRF KinEASE-TK Substrate-biotin, 100 μM ATP in 1× Kinase Buffer.
as §1

[2] = biological target: T2, wt human JAK1, catalytic site (Homo sapiens, UniProt P23458); assay: HTRF KinEASE assay, JAK1; type: biochemical; settings: 2.5 μM ATP; read-out: IC50, Activity Toward JAK1
T2 construct: wt human JAK1, catalytic site; purchased ThermoFisher
Summary of the method: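 Compounds in DMSO dilution were mixed with kinase, biotin-TK substrate and ATP and reacted for ≥30 min at room temperature. Detection reagents (antibody, streptavidin-XL665) were read 60 min later as HTRF, with emission ratios analysed per KinEASE protocol.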

[3] = biological target: T3, G2019S human LRRK2, catalytic site (Homo sapiens, UniProt Q5S007, G2019S); assay: TR-FRET LanthaScreen Eu Kinase Binding Assay, LRRK2 G2019S; settings: LRRK2(G2019); one range stated for wt and G2019; read-out: IC50, Activity Toward LRRK2(G2019)
T3 construct: G2019S human LRRK2, catalytic site; purchased ThermoFisher
Summary of the method: (§2)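 Kinase Buffer A holding, as final levels, 8 nM full-length NUAK1, 2 nM Eu-anti-His antibody and 5 nM Tracer 236, or 5 nM LRRK2 catalytic site (wt or G2019S), 2 nM Eu-anti-GST and 10 nM Tracer 236. Compound added, then 1 h at room temperature before TR-FRET ratio readout.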

[4] = biological target: T4, wt human NUAK1, full length (Homo sapiens, UniProt O60285); assay: TR-FRET LanthaScreen Eu Kinase Binding Assay, NUAK1; settings: read-out: IC50, Activity Toward NUAK1
T4 construct: 8 nM wt human NUAK1, full length (ThermoFisher/USA); purchased ThermoFisher
T4 sequence (O60285 1-661): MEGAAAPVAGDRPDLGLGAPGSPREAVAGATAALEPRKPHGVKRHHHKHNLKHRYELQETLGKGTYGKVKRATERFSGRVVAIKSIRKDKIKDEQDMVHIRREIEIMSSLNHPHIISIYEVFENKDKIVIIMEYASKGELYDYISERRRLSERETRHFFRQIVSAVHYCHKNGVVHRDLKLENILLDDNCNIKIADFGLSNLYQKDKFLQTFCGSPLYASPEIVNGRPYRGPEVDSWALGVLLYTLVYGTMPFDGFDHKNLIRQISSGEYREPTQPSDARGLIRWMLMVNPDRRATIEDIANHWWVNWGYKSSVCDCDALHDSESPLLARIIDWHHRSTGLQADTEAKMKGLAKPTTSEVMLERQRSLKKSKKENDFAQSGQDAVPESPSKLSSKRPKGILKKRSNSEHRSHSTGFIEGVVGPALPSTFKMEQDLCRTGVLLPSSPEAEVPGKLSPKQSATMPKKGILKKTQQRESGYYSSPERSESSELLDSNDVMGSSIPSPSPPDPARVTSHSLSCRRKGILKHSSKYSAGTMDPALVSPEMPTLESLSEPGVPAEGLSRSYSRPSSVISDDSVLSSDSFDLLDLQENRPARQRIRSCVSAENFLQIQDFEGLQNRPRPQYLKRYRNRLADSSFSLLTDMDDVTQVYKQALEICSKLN
Summary of the method: as §2

[5] = biological target: T5, wt human TYK2, catalytic site (Homo sapiens, UniProt P29597); assay: HTRF KinEASE assay, TYK2; type: biochemical; settings: 1 μM ATP; read-out: IC50, Activity Toward TYK2
T5 construct: wt human TYK2, catalytic site; purchased SignalChem
T5 sequence (P29597 897-1176 limits assumed): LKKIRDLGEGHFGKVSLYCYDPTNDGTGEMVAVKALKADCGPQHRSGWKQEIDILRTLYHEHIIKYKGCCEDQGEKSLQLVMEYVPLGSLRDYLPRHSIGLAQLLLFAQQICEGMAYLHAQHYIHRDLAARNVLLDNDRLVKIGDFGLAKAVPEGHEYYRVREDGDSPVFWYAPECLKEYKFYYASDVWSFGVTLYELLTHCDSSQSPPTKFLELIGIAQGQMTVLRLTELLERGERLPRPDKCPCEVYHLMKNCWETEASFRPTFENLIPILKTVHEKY
Summary of the method: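 Kinase reaction run at room temperature for at least 30 min: 2 nM TYK2 with 1 μM ATP, or 1 nM JAK2 with 100 μM ATP, each with 1 μM biotin-TK substrate. Phosphorylation detected by HTRF (60 min antibody/XL665) and evaluated from emission ratios.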

[6] = biological target: T6, wt human LRRK2, catalytic site (Homo sapiens, UniProt Q5S007); assay: TR-FRET LanthaScreen Eu Kinase Binding Assay, LRRK2 wt; settings: one range stated for wt and G2019, read-out: IC50, Activity Toward LRRK2(Wt)
T6 construct: 5 nM wt human LRRK2, catalytic site; purchased ThermoFisher
Summary of the method: as §2

T2 sequence (P23458 875-1153 limits assumed): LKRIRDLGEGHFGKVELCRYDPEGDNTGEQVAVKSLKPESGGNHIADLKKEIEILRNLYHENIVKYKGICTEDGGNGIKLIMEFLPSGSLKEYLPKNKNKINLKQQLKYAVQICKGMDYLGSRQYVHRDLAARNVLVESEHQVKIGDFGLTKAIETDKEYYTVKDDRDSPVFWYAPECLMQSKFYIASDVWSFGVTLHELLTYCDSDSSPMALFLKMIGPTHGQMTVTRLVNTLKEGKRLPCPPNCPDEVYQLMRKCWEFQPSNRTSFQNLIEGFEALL
T6 sequence (Q5S007 970-2527 limits assumed): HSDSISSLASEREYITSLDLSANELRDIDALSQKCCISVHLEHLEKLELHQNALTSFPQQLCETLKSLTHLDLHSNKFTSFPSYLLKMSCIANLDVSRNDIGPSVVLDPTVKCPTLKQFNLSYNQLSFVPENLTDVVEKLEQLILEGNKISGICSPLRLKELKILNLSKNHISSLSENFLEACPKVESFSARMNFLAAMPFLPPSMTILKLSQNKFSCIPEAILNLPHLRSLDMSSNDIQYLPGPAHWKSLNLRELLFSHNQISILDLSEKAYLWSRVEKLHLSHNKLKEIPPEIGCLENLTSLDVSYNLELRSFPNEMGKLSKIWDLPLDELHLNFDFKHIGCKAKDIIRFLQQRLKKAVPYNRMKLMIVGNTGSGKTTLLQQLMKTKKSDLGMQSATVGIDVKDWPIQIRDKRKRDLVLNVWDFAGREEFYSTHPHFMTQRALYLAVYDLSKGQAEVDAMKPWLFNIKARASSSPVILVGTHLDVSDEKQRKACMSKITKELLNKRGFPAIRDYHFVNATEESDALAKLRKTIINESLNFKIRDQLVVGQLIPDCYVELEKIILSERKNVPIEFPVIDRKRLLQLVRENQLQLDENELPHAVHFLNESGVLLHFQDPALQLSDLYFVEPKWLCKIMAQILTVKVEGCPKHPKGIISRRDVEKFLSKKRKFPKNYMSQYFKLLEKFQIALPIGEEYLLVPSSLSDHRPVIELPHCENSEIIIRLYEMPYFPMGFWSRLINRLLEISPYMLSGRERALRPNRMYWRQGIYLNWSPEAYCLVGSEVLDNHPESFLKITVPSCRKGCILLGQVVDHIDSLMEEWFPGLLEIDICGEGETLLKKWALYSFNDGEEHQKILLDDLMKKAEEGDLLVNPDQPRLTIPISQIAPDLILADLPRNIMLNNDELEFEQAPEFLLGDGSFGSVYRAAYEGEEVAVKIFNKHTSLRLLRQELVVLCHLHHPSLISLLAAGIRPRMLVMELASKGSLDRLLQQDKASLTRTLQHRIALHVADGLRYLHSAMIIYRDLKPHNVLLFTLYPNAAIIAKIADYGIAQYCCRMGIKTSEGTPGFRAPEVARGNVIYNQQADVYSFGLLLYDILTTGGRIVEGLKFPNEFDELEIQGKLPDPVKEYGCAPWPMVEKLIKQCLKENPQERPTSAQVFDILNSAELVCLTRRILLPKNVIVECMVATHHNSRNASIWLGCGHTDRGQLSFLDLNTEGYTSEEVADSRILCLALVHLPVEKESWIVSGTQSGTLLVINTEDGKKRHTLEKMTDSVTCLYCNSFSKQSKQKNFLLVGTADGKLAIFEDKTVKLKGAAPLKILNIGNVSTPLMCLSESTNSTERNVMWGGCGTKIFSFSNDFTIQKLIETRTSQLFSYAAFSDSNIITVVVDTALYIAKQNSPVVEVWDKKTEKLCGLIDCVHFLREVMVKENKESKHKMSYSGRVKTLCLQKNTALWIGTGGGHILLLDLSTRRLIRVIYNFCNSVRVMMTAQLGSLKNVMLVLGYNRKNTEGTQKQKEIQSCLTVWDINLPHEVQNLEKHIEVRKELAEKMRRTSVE
T3 sequence (Q5S007 970-2527 G2019S limits assumed): as the sequence (Q5S007 970-2527 limits assumed) above, with G1050S counted along it
T1 sequence (O60674 849-1124 limits assumed): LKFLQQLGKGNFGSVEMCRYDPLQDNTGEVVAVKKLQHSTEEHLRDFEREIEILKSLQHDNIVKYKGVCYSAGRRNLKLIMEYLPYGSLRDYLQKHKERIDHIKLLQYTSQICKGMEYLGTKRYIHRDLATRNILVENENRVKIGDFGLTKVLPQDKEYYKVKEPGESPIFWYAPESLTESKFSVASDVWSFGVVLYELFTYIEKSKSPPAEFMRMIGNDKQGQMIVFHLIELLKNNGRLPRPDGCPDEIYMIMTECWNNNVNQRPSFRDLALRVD

SMILES | pIC50 [1] | pIC50 [2] | pIC50 [3] | pIC50 [4] | pIC50 [5] | pIC50 [6]
NC(=O)c1nn(-c2c(F)cccc2F)cc1Nc1ccc(C(=O)N2CCOCC2)cc1 [compound 12, 1-(2,6-difluorophenyl)-4-((4-(morpholine-4-carbonyl)phenyl)amino)-1H-pyrazole-3-carboxamide] | 6.00 to 7.00 | 6.00 to 7.00 | 7.00 to 8.00 | 6.00 to 7.00 | 7.00 to 8.00 | 7.00 to 8.00
NC(=O)c1nn(-c2c(F)cccc2F)cc1Nc1ccc(C(=O)NC2CCOCC2)cc1 [compound 13, 1-(2,6-difluorophenyl)-4-((4-((tetrahydro-2H-pyran-4-yl)carbamoyl)phenyl)amino)-1H-pyrazole-3-carboxamide] | 6.00 to 7.00 | 6.00 to 7.00 | 6.00 to 7.00 | 7.00 to 8.00 | 7.00 to 8.00 | 6.00 to 7.00
NC(=O)c1nn(-c2c(F)cccc2Cl)cc1Nc1ccc(C(=O)N2CCOCC2)cc1 [compound 22, 1-(2-chloro-6-fluorophenyl)-4-((4-(morpholine-4-carbonyl)phenyl)amino)-1H-pyrazole-3-carboxamide] | 6.00 to 7.00 | 7.00 to 8.00 | 6.00 to 7.00 | 7.00 to 8.00 | > 8.00 | 6.00 to 7.00
CN1CCN(C(=O)c2ccc(Nc3cn(-c4c(F)cccc4Cl)nc3C(N)=O)cc2)CC1 [compound 36, 1-(2-chloro-6-fluorophenyl)-4-((4-(4-methylpiperazine-1-carbonyl)phenyl)amino)-1H-pyrazole-3-carboxamide] | 6.00 to 7.00 | 7.00 to 8.00 | 7.00 to 8.00 | 6.00 to 7.00 | > 8.00 | 7.00 to 8.00
NC(=O)c1nn(-c2c(F)cccc2Cl)cc1Nc1ccc(-c2nnc3n2CCCC3)cc1 [compound 58, 1-(2-chloro-6-fluorophenyl)-4-((4-(5,6,7,8-tetrahydro-[1,2,4]triazolo[4,3-a]pyridin-3-yl)phenyl)amino)-1H-pyrazole-3-carboxamide] | 6.00 to 7.00 | 7.00 to 8.00 | 7.00 to 8.00 | 6.00 to 7.00 | > 8.00 | 7.00 to 8.00
NC(=O)c1nn(-c2c(F)cccc2Cl)cc1Nc1ccc(-c2nnc3n2CCOC3)cc1 [compound 62, 1-(2-chloro-6-fluorophenyl)-4-((4-(6,8-dihydro-5H-[1,2,4]triazolo[3,4-c][1,4]oxazin-3-yl)phenyl)amino)-1H-pyrazole-3-carboxamide] | 6.00 to 7.00 | 6.00 to 7.00 | 7.00 to 8.00 | 6.00 to 7.00 | > 8.00 | 7.00 to 8.00
CCn1cnnc1-c1ccc(Nc2cn(-c3c(Cl)cccc3Cl)nc2C(N)=O)cc1 [compound 87, 1-(2,6-dichlorophenyl)-4-((4-(4-ethyl-4H-1,2,4-triazol-3-yl)phenyl)amino)-1H-pyrazole-3-carboxamide] | 6.00 to 7.00 | 7.00 to 8.00 | 6.00 to 7.00 | 6.00 to 7.00 | > 8.00 | 6.00 to 7.00
Cn1cnnc1-c1ccc(Nc2cn(-c3c(Cl)cccc3Cl)nc2C(N)=O)cc1 [compound 88, 1-(2,6-dichlorophenyl)-4-((4-(4-methyl-4H-1,2,4-triazol-3-yl)phenyl)amino)-1H-pyrazole-3-carboxamide] | 6.00 to 7.00 | 7.00 to 8.00 | 6.00 to 7.00 | 6.00 to 7.00 | > 8.00 | 6.00 to 7.00
CN(C)[C@H]1CCN(C(=O)c2ccc(Nc3nn(-c4c(Cl)cccc4Cl)nc3C(N)=O)cc2)C1 [compound 105, 2-(2,6-Dichloro-phenyl)-5-[4-((S)-3-dimethylamino-pyrrolidine-1-carbonyl)-phenylamino]-2H-[1,2,3]triazole-4-carboxylic acid amide] | 6.00 to 7.00 | > 8.00 | – | 6.00 to 7.00 | > 8.00 | –

Second part, the molecule after the results:

pIC50 [1] | pIC50 [2] | pIC50 [3] | pIC50 [4] | pIC50 [5] | pIC50 [6] | SMILES
6.00 to 7.00 | 7.00 to 8.00 | – | 6.00 to 7.00 | > 8.00 | – | NC(=O)c1nn(-c2c(Cl)cccc2Cl)nc1Nc1ccc(C(=O)N2CC[C@@H](F)C2)cc1 [compound 106, 2-(2,6-Dichloro-phenyl)-5-[4-((R)-3-fluoro-pyrrolidine-1-carbonyl)-phenylamino]-2H-[1,2,3]triazole-4-carboxylic acid amide]
6.00 to 7.00 | 6.00 to 7.00 | 6.00 to 7.00 | 6.00 to 7.00 | 7.00 to 8.00 | 6.00 to 7.00 | NC(=O)c1nn(-c2c(Cl)cccc2Cl)cc1Nc1ccc(-c2nncn2C2CCCC2)cc1 [compound 202, 4-((4-(4-cyclopentyl-4H-1,2,4-triazol-3-yl)phenyl)amino)-1-(2,6-dichlorophenyl)-1H-pyrazole-3-carboxamide]
6.00 to 7.00 | 7.00 to 8.00 | – | 6.00 to 7.00 | > 8.00 | – | CC(C)Cn1cnnc1-c1ccc(Nc2cn(-c3c(Cl)cccc3Cl)nc2C(N)=O)cc1 [compound 203, 1-(2,6-dichlorophenyl)-4-((4-(4-isobutyl-4H-1,2,4-triazol-3-yl)phenyl)amino)-1H-pyrazole-3-carboxamide]
6.00 to 7.00 | 7.00 to 8.00 | 6.00 to 7.00 | 6.00 to 7.00 | 7.00 to 8.00 | 6.00 to 7.00 | CC(C)n1cnnc1-c1ccc(Nc2cn(-c3c(Cl)cccc3Cl)nc2C(N)=O)cc1 [compound 205, 1-(2,6-dichlorophenyl)-4-((4-(4-isopropyl-4H-1,2,4-triazol-3-yl)phenyl)amino)-1H-pyrazole-3-carboxamide]
6.00 to 7.00 | 7.00 to 8.00 | 6.00 to 7.00 | 6.00 to 7.00 | 7.00 to 8.00 | 6.00 to 7.00 | NC(=O)c1nn(-c2c(Cl)cccc2Cl)cc1Nc1ccc(-c2nncn2C2CC2)cc1 [compound 206, 4-((4-(4-cyclopropyl-4H-1,2,4-triazol-3-yl)phenyl)amino)-1-(2,6-dichlorophenyl)-1H-pyrazole-3-carboxamide]
6.00 to 7.00 | 7.00 to 8.00 | 6.00 to 7.00 | 6.00 to 7.00 | > 8.00 | 6.00 to 7.00 | CCn1cnnc1-c1ccc(Nc2cn(-c3c(F)cccc3Cl)nc2C(N)=O)cc1 [compound 207, 1-(2-chloro-6-fluorophenyl)-4-((4-(4-ethyl-4H-1,2,4-triazol-3-yl)phenyl)amino)-1H-pyrazole-3-carboxamide]
